According to US20240366624A1, “METHODS AND COMPOSITIONS FOR TREATING THROMBOTIC DISEASE” (Washington University, priority 2023, published 2024):
Entries after “also recorded” stand apart in the source; their conditions may differ. Like-named read-outs stand apart in the source and are kept apart here.

Assays:
MAO-B = biological target: T1, MAO-B (Homo sapiens, UniProt P27338); settings: from studies; cited from earlier work
T1 sequence (P27338 1-520): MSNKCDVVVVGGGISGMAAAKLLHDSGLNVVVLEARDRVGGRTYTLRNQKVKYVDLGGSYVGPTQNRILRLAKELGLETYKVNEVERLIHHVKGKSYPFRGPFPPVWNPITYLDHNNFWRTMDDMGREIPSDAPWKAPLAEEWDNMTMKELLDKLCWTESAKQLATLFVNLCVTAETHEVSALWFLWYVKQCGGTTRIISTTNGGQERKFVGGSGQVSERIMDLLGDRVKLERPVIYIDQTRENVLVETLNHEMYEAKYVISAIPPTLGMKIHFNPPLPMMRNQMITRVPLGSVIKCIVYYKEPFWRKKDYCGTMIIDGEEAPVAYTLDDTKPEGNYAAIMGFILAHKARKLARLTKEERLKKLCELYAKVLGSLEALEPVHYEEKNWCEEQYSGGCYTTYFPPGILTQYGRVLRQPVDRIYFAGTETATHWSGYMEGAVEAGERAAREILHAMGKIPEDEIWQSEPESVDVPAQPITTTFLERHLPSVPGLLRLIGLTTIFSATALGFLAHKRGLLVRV

ERO1α = biological target: T2, ERO1α (Homo sapiens, UniProt Q96HE7); assay: ERO1α activity assay; assay type: biochemical
T2 sequence (Q96HE7 24-468): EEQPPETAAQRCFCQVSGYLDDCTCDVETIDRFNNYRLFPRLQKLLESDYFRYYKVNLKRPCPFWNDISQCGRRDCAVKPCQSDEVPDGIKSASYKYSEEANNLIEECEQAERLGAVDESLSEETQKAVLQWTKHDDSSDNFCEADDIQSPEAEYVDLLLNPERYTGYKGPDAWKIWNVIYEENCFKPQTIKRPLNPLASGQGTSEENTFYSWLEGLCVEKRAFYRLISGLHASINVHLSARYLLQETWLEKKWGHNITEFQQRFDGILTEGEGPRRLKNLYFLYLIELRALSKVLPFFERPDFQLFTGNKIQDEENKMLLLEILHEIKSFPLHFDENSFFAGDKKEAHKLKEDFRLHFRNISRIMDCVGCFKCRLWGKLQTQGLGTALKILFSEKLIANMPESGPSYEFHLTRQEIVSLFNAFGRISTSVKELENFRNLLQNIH
Excerpt: FIG. 17(A-F) is an exemplary embodiment of identification of novel ERO1α inhibitors by high throughput screening in accordance with the present disclosure. FIG. 17A: A scheme of an ERO1α activity assay. FIG. 17B: Screening of chemical libraries in the ERO1α activity assay. FIG. 17C: The inhibitory effect of selected compounds on ERO1α activity. FIG. 17D: The inhibitory effect of selected compounds on PDI activity. FIG. 17E: The inhibitory effect of selected compounds on H2O2 activity. FIG. 17F: The inhibitory effect of selected compounds on thiol-reacting activity. The data represent the mean±SD (n=3). *P<0.05, **P<0.01, ***P<0.001, and ****P<0.0001 vs. vehicle control, Student's t-test.
To identify a novel ERO1α inhibitor, 5800 compounds were screened using an ERO1α activity assay (FIG. 17A and FIG. 17B). […] The selected compounds were further tested in assays measuring PDI, antioxidant, and thiol-reacting activities (FIG. 17D through FIG. 17F). […] B12 inhibited P-selectin exposure and αIIbβ3 activation in agonist-activated mouse and human platelets in a concentration-dependent manner (FIG. 18B through FIG. 18E).

WT (C57BL/6) mice = assay: Intravital microscopy, laser-induced cremaster arteriolar injury, WT mice; assay type: in vivo, mouse; settings: iv 5 μg/g BW
Experimental: Intravital microscopy was performed in a mouse model of laser-induced cremaster arteriolar injury as previously described. WT (C57BL/6), littermate WT control, and CKO and KO male mice (8-10 weeks old) were anesthetized with intraperitoneal injection of ketamine and xylazine. The cremaster muscle was exteriorized and superfused with 37° C. bicarbonate-buffered saline throughout the experiment. Arteriolar wall injury was induced by laser ablation (Photonics Instruments) as previously described. Multiple thrombi were generated in at least 3 to 4 different arterioles of 1 mouse, with new thrombi formed upstream of earlier thrombi to minimize any contribution from thrombi generated earlier in the mouse. Platelets and fibrin were visualized by infusion of DyLight 649-conjugated anti-CD42c (0.2 μg/g body weight [BW]) and Alexa Fluor 488-conjugated anti-fibrin (0.2 μg/g BW) antibodies, respectively. To detect extracellular Ero1α, Alexa Fluor 488-conjugated rabbit IgG or nonblocking anti-ERO1α antibodies (0.3 μg/g BW) were injected into WT (C57BL/6), WT control, Ero1α KO, and Ero1α CKO mice. In some experiments, wtERO1α or activity-null ERO1α-Cys94Ser (mutant ERO1α [mERO1α]; 4 μg/g BW) was infused into Ero1α KO mice before imaging. To test the effect of ERO1α inhibitors or blocking anti-ERO1α antibodies, WT (C57BL/6) mice were treated with intravenous injection of vehicle control, eptifibatide (5 μg/g BW), B12-5 (5 μg/g BW), isotype control IgGs, anti-ERO1α (15E9, 1-3 μg/g BW), or anti-PDI (BD34, 3 μg/g BW) 3 minutes before treatment with the anti-CD42c and anti-fibrin antibodies. The same dose of eptifibatide was injected every 20 minutes to maintain the inhibitory effect. […] Fluorescence and bright-field images were captured in 6 to 10 different cremaster arterioles with a diameter of 30 to 45 μm in each mouse and recorded using either an Olympus BX61W microscope with a 60×1.0 salt water immersion objective or a Zeiss Axio Examiner Z1 microscope system with a Yokogawa confocal spinning disk (CSU-W1) equipped with 4 stack laser system (405-, 488-, 561-, and 637-nm wavelengths). Images were collected with a high-speed, high-resolution camera (2304×2304 pixel format; ORCA-Fusion BT sCMOS, Hamamatsu). Time 0 was set to when image capture began on each vessel. The data were analyzed using Slidebook (version 6.0; Intelligent Imaging Innovations). Due to the significant variation between vessels in the same mouse, the result from each vessel was counted as an individual value. Representative images were chosen that most closely resemble the mean values in the quantifications.

Compound | IC50 (MAO-B) [µM] | IC50 (ERO1α; read-out: IC50, ERO1α activity) [µM] | IC50 (ERO1α; read-out: IC50, ERO1α inhibitor) [µM] | platelet thrombus formation (WT (C57BL/6) mice) | platelet thrombus formation (WT (C57BL/6) mice; listed as B112-5)
O=C(O)c1cc(N2N=C(C(F)(F)F)/C(=C/c3ccc(-c4ccccc4)o3)C2=O)ccc1Cl [EN460] | 30.6 | – | – | – | –
O=C(CSc1nc(O)cc(O)n1)N1c2ccccc2Sc2ccccc21 [B12-5] | – | 7.9 | 7.9 | significantly inhibited; also recorded: significantly reduced | inhibit
